# Source: patent EP1946754A1, “THERAPEUTIC AGENT FOR ULCERATIVE COLITIS AND/OR CROHN'S DISEASE” (Yamamoto, Keiko, priority 2005, dated 2007)
# Experiments:
# [1] = test system: dextran sodium sulfate (DSS)-induced ulcerative colitis model in the rat; assay: Rat model of DSS-induced ulcerative colitis, 7-day repetitive intrarectal administration (Example 1); type: in vivo, SD rats; conditions: 7 days; for Hb / Ht / RBC / WBC: hematological examination, i.r., DSS rat; for colon contraction: DSS rat (Figure 2)
# Source text: The therapeutic effect of YY-1 was investigated with the 7-day repetitive intrarectal administration using a dextran sodium sulfate (DSS)-induced ulcerative colitis model in the rat (Cancer Research, 61, 2424-2428, 2001). To generate the rat model of DSS-induced ulcerative colitis, a 3% aqueous DSS solution was ingested ad libitum by SD rats (male, age: 7 weeks) purchased from Charles River Laboratories Japan Inc., and animals presenting bloody stools were used as the rat model of DSS-induced ulcerative colitis.
# The negative control group received 0.5% aqueous CMC-Na solution (vehicle) by intrarectal administration, while the positive control group received 100 mg/kg/day 5-aminosalicylic acid (5-ASA, purchased from Aldrich Chemical Company) dissolved in 0.5% aqueous CMC-Na solution by intrarectal administration. For YY-1, the compound was combined with 0.5% aqueous CMC-Na solution by means of a vortex mixing and sonication to form a suspension, and was administered intrarectally at 20 mg/kg/day (low dose group), 100 mg/kg/day (intermediate dose group), and 500 mg/kg/day (high dose group). Each group contained 8 SD rats, and a 1% aqueous DSS solution was ingested ad libitum during the test period.
# [2] = test system: dextran sodium sulfate (DSS)-induced ulcerative colitis model in the mouse; assay: Mouse model of DSS-induced ulcerative colitis, 7-day repetitive intrarectal administration, 9.0% DSS during test period (Example 3); type: in vivo, c57BL/6J mice; conditions: 500 mg/kg/day intrarectal, 7 days
# Source text: (§1) The therapeutic effect of YY-1 was investigated with the 7-day repetitive intrarectal administration using a dextran sodium sulfate (DSS)-induced ulcerative colitis model in the mouse. To generate the mouse model of DSS-induced ulcerative colitis, a 9.0% aqueous DSS solution was ingested ad libitum for 7 days by c57BL/6J (male, age: 8 weeks) purchased from CLEA Japan, Inc., and animals presenting body weight loss, bloody stool, and/or diarrhea were used as the mouse model of DSS-induced ulcerative colitis.
# The negative control group received 0.5% aqueous CMC-Na solution by intrarectal administration. For YY-1, the compound was combined with 0.5% aqueous CMC-Na solution by means of an ultrasound mixer under ice cooling to prepare a suspension, and was administered intrarectally at 500 mg/kg/day. Each group contained 8 c57BL/6J mice, and a 9.0% aqueous DSS solution was ingested ad libitum during the test period (Figure 7).
# [3] = test system: dextran sodium sulfate (DSS)-induced ulcerative colitis model in the mouse; assay: Mouse model of DSS-induced ulcerative colitis, 7-day repetitive intrarectal administration, 5.0% DSS during test period (Example 2); type: in vivo, c57BL/6J mice; conditions: 7 days; for body weight gain: P < 0.05 (Figure 4); for symptom alleviation: P < 0.05 (Figure 5); for colon contraction: P < 0.05 (Figure 6)
# Source text: as §1
# The negative control group received 0.5% aqueous CMC-Na solution by intrarectal administration, while the positive control group received 100 mg/kg/day 5-aminosalicylic acid (5-ASA, purchased from Aldrich Chemical Company) dissolved in 0.5% aqueous CMC-Na solution by intrarectal administration. For YY-1, the compound was combined with 0.5% aqueous CMC-Na solution by means of an ultrasound mixer under ice cooling to form a suspension, and was administered intrarectally at 100 mg/kg/day or 500 mg/kg/day. Each group contained 8 c57BL/6J mice, and a 5.0% aqueous DSS solution was ingested ad libitum during the test period (Figure 3).
smiles,measurement,setting,value
"Nc1ccc(O)c(C(=O)O)c1 [5-ASA, 5-aminosalicylic acid, reference compound]",Hb,[1]; 100 mg/kg/day,13.3 ± 0.4 g/dL
same,Ht,[1]; 100 mg/kg/day,41.7 ± 1.1%
same,RBC,[1]; 100 mg/kg/day,633 ± 27 x 10^4/µL
same,WBC,[1]; 100 mg/kg/day,126 ± 20 x 10^2/µL
"CC/C=C\C/C=C\C/C=C\C/C=C\C/C=C\C=C\C(O)CCC(=O)O (stereo not shown) [YY-1, (5E,7Z,10Z,13Z,16Z,19Z)-4-hydroxy-5,7,10,13,16,19-docosahexaenoic acid]",colon contraction,[1]; 100 mg/kg/day intrarectal,significant improvement
same,area of erosion in the mucous membrane of the colon,"[1]; 500 mg/kg/day intrarectal, DSS rat (Figure 1)",significant reduction
same,colon contraction,[1]; 500 mg/kg/day intrarectal,significant improvement
same,Hb,[1]; 20 mg/kg/day,11 ± 1.5 g/dL
same,Ht,[1]; 20 mg/kg/day,35.5 ± 4.6%
same,RBC,[1]; 20 mg/kg/day,519 ± 80 x 10^4/µL
same,WBC,[1]; 20 mg/kg/day,136 ± 34 x 10^2/µL
same,Hb,[1]; 100 mg/kg/day,12.2 ± 0.9 g/dL
same,Ht,[1]; 100 mg/kg/day,41.5 ± 3.2%
same,RBC,[1]; 100 mg/kg/day,605 ± 51 x 10^4/µL
same,WBC,[1]; 100 mg/kg/day,120 ± 13 x 10^2/µL
same,Hb,[1]; 500 mg/kg/day,13.8 ± 0.3 g/dL
same,Ht,[1]; 500 mg/kg/day,45.7 ± 1.1%
same,RBC,[1]; 500 mg/kg/day,670 ± 20 x 10^4/µL
same,WBC,[1]; 500 mg/kg/day,138 ± 14 x 10^2/µL
same,colon contraction,[2]; P < 0.01 (Figure 10),significant improvement
same,body weight gain,[2]; P < 0.05 (Figure 8),significant improvement
same,symptom alleviation,[2]; P < 0.05 (Figure 9),significant improvement
same,body weight gain,[3]; 100 mg/kg/day intrarectal,significant improvement
same,symptom alleviation,[3]; 100 mg/kg/day intrarectal,significant improvement
same,colon contraction,[3]; 100 mg/kg/day intrarectal,significant improvement
same,body weight gain,[3]; 500 mg/kg/day intrarectal,significant improvement
same,symptom alleviation,[3]; 500 mg/kg/day intrarectal,significant improvement
same,colon contraction,[3]; 500 mg/kg/day intrarectal,significant improvement
